From US4344939A, “Penicillin 1,1-dioxides, compositions thereof and methods of use” (Bayer Aktiengesellschaft, priority 1979, dated 1982)

Key:
Format in all cases: cell-based
E. coli T 7 = experiment: MIC, Table 1, E. coli T 7
Source text: (§1) The penicillanic acid 1,1-dioxide derivatives according to the invention inactivate, by inhibition or destruction, the bacterial enzymes which split the β-lactam ring (β-lactamases). The degradation of other penicillins, for example of amoxicillin, mezlocillin, ampicillin, azlocillin, penicillin G, carbenicillin and ticarcillin, is thereby prevented, and on the one hand their activity is thereby retained and on the other hand their spectrum of action is extended to bacteria which produce β-lactamase.

Klebsiella pneum. 1852 = experiment: MIC, Table 1, Klebsiella pneum. 1852
Source text: as §1

[1] = system: Staphylococcus aeureus 1756; experiment: MIC, Table 1, Staphylococcus aureus 1756
Source text: as §1

[2] = system: Staphylococcus aureus 133; experiment: in vitro turbidity test in Muller-Hinton nutrient broth; conditions: dosage of 1 μg/ml; 1×10^5 to 2×10^5 bacteria per ml; 0.1% glucose; incubated 24 hours
Protocol: […] In each case, the nutrient solution contained 1×10^5 to 2×10^5 bacteria per ml. The small tubes containing this batch were each incubated for 24 hours and the degree of turbidity was then determined. Absence from turbidity indicates action.

Row | Compound | MIC (E. coli T 7) | MIC (Klebsiella pneum. 1852) | MIC [1] | degree of turbidity (absence from turbidity indicates action) [2]
1 | CC1(C)S[C@@H]2[C@H](NC(=O)[C@H](NC(=O)N3CCN(S(C)(=O)=O)C3=O)c3ccccc3)C(=O)N2[C@H]1C(=O)O [mezlocillin] | > 256 E/ml | 128 E/ml | 256 E/ml | 
2 | CCOC(OCC)(OCC)C(=O)N[C@@H]1C(=O)N2[C@@H](C(=O)O)C(C)(C)S(=O)(=O)[C@H]12 [Example 1] |  | > 256 E/ml | > 256 E/ml | free from turbidity
